Laboratory results from ChEMBL document CHEMBL1132048, “Optimisation of the P2 pharmacophore in a series of thrombin inhibitors: ion-dipole interactions with lysine 60G” (Bioorg Med Chem Lett, 1999).

Test system: not listed separately
Assay: pKa was determined
Assay type: physicochemical
Compound `NCCCC[C@H](N)C(=O)O` [LYSINE] has a pKa of 10.2.

Biological target: Prothrombin (Homo sapiens, UniProt P00734)
Assay: Inhibition of human thrombin (in vitro)
Compound `CNC(=O)OCCC1CCN(C(=O)[C@H](Cc2nc3ccccc3s2)NS(=O)(=O)c2cccc3c2NCC(C)(C)C3)CC1` has a Ki of 38 nM.
`CC1(C)CNc2c(cccc2S(=O)(=O)N[C@@H](Cc2nc3ccccc3s2)C(=O)N2CCC(CCCl)CC2)C1` gave a Ki of 93 nM.
In the case of `CCC1CCN(C(=O)[C@H](Cc2nc3ccccc3s2)NS(=O)(=O)c2cccc3c2NCC(C)(C)C3)CC1`, the Ki is reported as 240 nM.
For `CCNC(=O)NCCC1CCN(C(=O)[C@H](Cc2nc3ccccc3s2)NS(=O)(=O)c2cccc3c2NCC(C)(C)C3)CC1`, the Ki was 65 nM.
`CC1(C)CNc2c(cccc2S(=O)(=O)N[C@@H](Cc2nc3ccccc3s2)C(=O)N2CCC(CCNC(=O)OC(C)(C)C)CC2)C1` gave a Ki of 52 nM.
`CC1(C)CNc2c(cccc2S(=O)(=O)N[C@@H](Cc2nc3ccccc3s2)C(=O)N2CCN(CCO)CC2)C1` gave a Ki of 350 nM.
With `CN(C)CCC1CCN(C(=O)[C@H](Cc2nc3ccccc3s2)NS(=O)(=O)c2cccc3c2NCC(C)(C)C3)CC1` the Ki was 38300 nM.
For `COC(=O)NCCC1CCN(C(=O)[C@H](Cc2nc3ccccc3s2)NS(=O)(=O)c2cccc3c2NCC(C)(C)C3)CC1`, the Ki was 56 nM.
Work on `CCCCNC(=O)NCCC1CCN(C(=O)[C@H](Cc2nc3ccccc3s2)NS(=O)(=O)c2cccc3c2NCC(C)(C)C3)CC1` yielded a Ki of 182 nM.
`CN(C)C(=O)NCCC1CCN(C(=O)[C@H](Cc2nc3ccccc3s2)NS(=O)(=O)c2cccc3c2NCC(C)(C)C3)CC1` showed a Ki of 1000 nM.
`CC1(C)CNc2c(cccc2S(=O)(=O)N[C@@H](Cc2nc3ccccc3s2)C(=O)N2CCC(CCN)CC2)C1` gave a Ki of 1180 nM.
`CC(=O)NCCC1CCN(C(=O)[C@H](Cc2nc3ccccc3s2)NS(=O)(=O)c2cccc3c2NCC(C)(C)C3)CC1` gave a Ki of 654 nM.
With `CNC(=O)NCCC1CCN(C(=O)[C@H](Cc2nc3ccccc3s2)NS(=O)(=O)c2cccc3c2NCC(C)(C)C3)CC1` the Ki was 24 nM.
Work on `CNS(=O)(=O)NCCC1CCN(C(=O)[C@H](Cc2nc3ccccc3s2)NS(=O)(=O)c2cccc3c2NCC(C)(C)C3)CC1` yielded a Ki of 119 nM.
`CC1(C)CNc2c(cccc2S(=O)(=O)N[C@@H](Cc2nc3ccccc3s2)C(=O)N2CCC(CCC(=O)O)CC2)C1` showed a Ki of 7830 nM.
`CC1(C)CNc2c(cccc2S(=O)(=O)N[C@@H](Cc2nc3ccccc3s2)C(=O)N2CCC(CCF)CC2)C1` showed a Ki of 26 nM.
`CC1(C)CNc2c(cccc2S(=O)(=O)N[C@@H](Cc2nc3ccccc3s2)C(=O)N2CCC(CCO)CC2)C1` gave a Ki of 79 nM.
